Patent publication US5543429A, “Antifungal agents” (Merck & Co., Inc., priority 1995, dated 1996)
Values after ≈ are worked out from the molar mass of the structure shown.

Tests used:
[1] = test system: Candida tropicalis MY1124; assay: broth microdilution assay (MIC/MFC); conditions: for MIC: MY1124, 24 h, read-out: Minimum Inhibitory Concentration (MIC); for MFC: MY1124, read-out: Minimum Fungicidal Concentration (MFC)
[2] = test system: Candida glabrata MY1381; assay: broth microdilution assay (MIC/MFC); conditions: Nakaseomyces glabratus; for MIC: MY1381, 24 h, read-out: Minimum Inhibitory Concentration (MIC); for MFC: MY1381, read-out: Minimum Fungicidal Concentration (MFC)
[3] = test system: Candida albicans CA2; assay: broth microdilution assay (MIC/MFC); conditions: for MIC: CA2, 24 h, read-out: Minimum Inhibitory Concentration (MIC); for MFC: CA2, read-out: Minimum Fungicidal Concentration (MFC)
[4] = test system: Saccharomyces cerevisiae MY2140; assay: broth microdilution assay (MIC/MFC); conditions: for MIC: MY2140, 24 h, read-out: Minimum Inhibitory Concentration (MIC); for MFC: MY2140, read-out: Minimum Fungicidal Concentration (MFC)
[5] = test system: Candida tropicalis MY1012; assay: broth microdilution assay (MIC/MFC); conditions: for MIC: MY1012, 24 h, read-out: Minimum Inhibitory Concentration (MIC); for MFC: MY1012, read-out: Minimum Fungicidal Concentration (MFC)
[6] = test system: Candida guillermondii MY1019; assay: broth microdilution assay (MIC/MFC); conditions: for MIC: MY1019, 24 h, read-out: Minimum Inhibitory Concentration (MIC); for MFC: MY1019, read-out: Minimum Fungicidal Concentration (MFC)
[7] = test system: Aspergillus flavus, Fusarium oxysporum, Ustilago zeae and the like; assay: agar plate inhibition zone test with filamentous fungi; format: cell-based; conditions: agar plates, 28°C or 37°C, 24 hours
[8] = test system: Aspergillus fumigatus MY4839; assay: broth microdilution assay (MIC/MFC); conditions: MY4839, 24 h, read-out: Minimum Inhibitory Concentration (MIC)
[9] = test system: Candida albicans MY1055; assay: broth microdilution assay (MIC/MFC); conditions: for MIC: MY1055, 24 h, read-out: Minimum Inhibitory Concentration (MIC); for MFC: MY1055, read-out: Minimum Fungicidal Concentration (MFC)
[10] = test system: Plasmopara viticola; assay: in vivo protectant assay, downy mildew on grape; conditions: P. viticola
[11] = test system: Cryptococcus neoformans MY2062; assay: broth microdilution assay (MIC/MFC); conditions: MY2062, 48 h; for MFC: read-out: Minimum Fungicidal Concentration (MFC); for MIC: read-out: Minimum Inhibitory Concentration (MIC)
[12] = test system: Candida parapsilosis MY1010; assay: broth microdilution assay (MIC/MFC); conditions: Lodderomyces parapsilosis; for MIC: MY1010, 24 h, read-out: Minimum Inhibitory Concentration (MIC); for MFC: MY1010, read-out: Minimum Fungicidal Concentration (MFC)
[13] = test system: Candida albicans CLY539; assay: broth microdilution assay (MIC/MFC); conditions: for MIC: CLY539, 24 h, read-out: Minimum Inhibitory Concentration (MIC); for MFC: CLY539, read-out: Minimum Fungicidal Concentration (MFC)
[14] = test system: Saccharomyces cerevisiae MY2141; assay: broth microdilution assay (MIC/MFC); conditions: for MIC: MY2141, 24 h, read-out: Minimum Inhibitory Concentration (MIC); for MFC: MY2141, read-out: Minimum Fungicidal Concentration (MFC)
[15] = test system: Cryptococcus neoformans MY2061; assay: broth microdilution assay (MIC/MFC); conditions: MY2061, 48 h; for MFC: read-out: Minimum Fungicidal Concentration (MFC); for MIC: read-out: Minimum Inhibitory Concentration (MIC)
[16] = test system: Candida pseudotropicalis MY2099; assay: broth microdilution assay (MIC/MFC); conditions: Kluyveromyces marxianus; for MIC: MY2099, 24 h, read-out: Minimum Inhibitory Concentration (MIC); for MFC: MY2099, read-out: Minimum Fungicidal Concentration (MFC)
[17] = test system: Aspergillus fumigatus MY5668; assay: broth microdilution assay (MIC/MFC); conditions: MY5668, 24 h, read-out: Minimum Inhibitory Concentration (MIC)
[18] = test system: Botrytis cinerea; assay: in vivo protectant assay, grey mold on pepper; conditions: B. cinerea
[19] = test system: Phytophthora infestans; format: in vivo; conditions: P. infestans, miniature plant assay
[20] = test system: Alternaria solani; assay: in vivo protectant assay, early blight on tomato; conditions: A. solani, miniature plant assay
[21] = test system: Puccinia recondita; assay: in vivo protectant assay, wheat leaf rust on wheat; conditions: P. recondita, scaled up, high spray volume assay, 100 ppm
[22] = test system: Septoria nodorum; assay: in vivo protectant assay, glume blotch on wheat; conditions: S. nodorum, scaled up, high spray volume assay, 100 ppm
[23] = test system: panel of seven pathogens; assay: in vivo protectant assay, panel of seven phytopathogens
[24] = scaled up, high spray volume assay, 100 ppm

SMILES | MIC [1] [µg/mL] | MFC [1] [µg/mL] | MIC [2] [µg/mL] | MFC [2] [µg/mL] | MIC [3] [µg/mL] | MFC [3] [µg/mL] | MIC [4] [µg/mL] | MFC [4] [µg/mL] | MIC [5] [µg/mL] | MFC [5] [µg/mL] | MIC [6] [µg/mL] | MFC [6] [µg/mL] | MIC [8] [µg/mL] | MIC [9] [µg/mL] | MFC [9] [µg/mL] | MIC [11] [µg/mL] | MIC [12] [µg/mL] | MFC [12] [µg/mL] | MIC [13] [µg/mL] | MFC [13] [µg/mL] | further results
C=CC1C(=C)CCC2C1CC1OC(=O)C3(C)C(O)CCC2(C)C13O (stereo not drawn) [Compound I] | 8 (≈ 24.1 µM) | 16 (≈ 48.1 µM) | 8 (≈ 24.1 µM) | 8 (≈ 24.1 µM) | 8 (≈ 24.1 µM) | 8 (≈ 24.1 µM) | 2 (≈ 6.02 µM) | 8 (≈ 24.1 µM) | 2 (≈ 6.02 µM) | 2 (≈ 6.02 µM) | 8 (≈ 24.1 µM) | 16 (≈ 48.1 µM) | 4 (≈ 12 µM) | 2 (≈ 6.02 µM) | 4 (≈ 12 µM) | 0.25 (≈ 0.752 µM) | 8 (≈ 24.1 µM) | 32 (≈ 96.3 µM) | 4 (≈ 12 µM) | 2 (≈ 6.02 µM) | inhibition of growth of filamentous fungi [7]: effectively inhibit growth of the fungal organisms; percent control of disease ([10]; 200 ppm): up to 80%; MFC [11]: 0.25 µg/mL (≈ 0.752 µM); MIC [14]: 1 µg/mL (≈ 3.01 µM); MFC [14]: 8 µg/mL (≈ 24.1 µM); MFC [15]: 0.25 µg/mL (≈ 0.752 µM); MIC [15]: 0.5 µg/mL (≈ 1.5 µM); MIC [16]: 4 µg/mL (≈ 12 µM); MFC [16]: 4 µg/mL (≈ 12 µM); MIC [17]: 8 µg/mL (≈ 24.1 µM); percent control of disease ([18]; 200 ppm): up to 80%
C[C@@H]1[C@H](O)[C@@H](C)/C=C/C=C/C=C/C=C/C=C/C=C/C=C/[C@H](O[C@@H]2O[C@H](C)[C@@H](O)[C@H](N)[C@@H]2O)C[C@@H]2O[C@](O)(C[C@@H](O)C[C@@H](O)[C@H](O)CC[C@@H](O)C[C@@H](O)CC(=O)O[C@H]1C)C[C@H](O)[C@H]2C(=O)O [Amphotericin B, amphotericin B, reference compound] | 2 (≈ 2.16 µM) | 2 (≈ 2.16 µM) | 2 (≈ 2.16 µM) | 2 (≈ 2.16 µM) | 1 (≈ 1.08 µM) | 1 (≈ 1.08 µM) | 1 (≈ 1.08 µM) | 1 (≈ 1.08 µM) | 16 (≈ 17.3 µM) | 16 (≈ 17.3 µM) | 1 (≈ 1.08 µM) | 2 (≈ 2.16 µM) | 2 (≈ 2.16 µM) | 1 (≈ 1.08 µM) | 1 (≈ 1.08 µM) | 1 (≈ 1.08 µM) | 1 (≈ 1.08 µM) | 1 (≈ 1.08 µM) | 1 (≈ 1.08 µM) | 2 (≈ 2.16 µM) | MIC [14]: 1 µg/mL (≈ 1.08 µM); MFC [14]: 1 µg/mL (≈ 1.08 µM); MIC [16]: 2 µg/mL (≈ 2.16 µM); MFC [16]: 2 µg/mL (≈ 2.16 µM); MIC [17]: 2 µg/mL (≈ 2.16 µM)
C=CC1=CCC2C(CC3OC(=O)C4(C)C(O)CCC2(C)C34O)C1C (stereo not drawn) [Compound II] | 4 (≈ 12 µM) | 8 (≈ 24.1 µM) | 4 (≈ 12 µM) | 4 (≈ 12 µM) | 32 (≈ 96.3 µM) | 4 (≈ 12 µM) | 1 (≈ 3.01 µM) | 2 (≈ 6.02 µM) | 2 (≈ 6.02 µM) | 2 (≈ 6.02 µM) | 8 (≈ 24.1 µM) | 16 (≈ 48.1 µM) | 2 (≈ 6.02 µM) | 2 (≈ 6.02 µM) | 4 (≈ 12 µM) | 1 (≈ 3.01 µM) | 8 (≈ 24.1 µM) | 8 (≈ 24.1 µM) | 2 (≈ 6.02 µM) | 2 (≈ 6.02 µM) | percent control of disease [19]: 80-95%; percent control of disease [20]: 80-95%; inhibition of growth of filamentous fungi [7]: effectively inhibit growth of the fungal organisms; percent control of disease ([10]; miniature plant assay): 80-95%; percent control of disease ([10]; protectant assay, 11 ppm): 50-85%; percent control of disease [10, 24]: 100%; MFC [11]: 1 µg/mL (≈ 3.01 µM); MIC [14]: 0.5 µg/mL (≈ 1.5 µM); MFC [14]: 1 µg/mL (≈ 3.01 µM); percent control of disease [21]: 100%; percent control of disease [22]: 60%; MFC [15]: 1 µg/mL (≈ 3.01 µM); MIC [15]: 2 µg/mL (≈ 6.02 µM); MIC [16]: 1 µg/mL (≈ 3.01 µM); MFC [16]: 2 µg/mL (≈ 6.02 µM); MIC [17]: 1 µg/mL (≈ 3.01 µM); percent control of disease ([18]; miniature plant assay): 80-95%; percent control of disease ([18]; protectant assay, 11 ppm): 50-85%; percent control of disease [18, 24]: 100%; control of phytopathogens [23]: very efficacious at controlling six of the phytopathogens
